In US6583125B2 (priority 1992, dated 2003):
Where two headings read alike, the source gives them in different places. *1 amine or outer side, *2 acyl side, *3 side chain or, on linkers, in order; H or OH if unused. Where a SMILES comes first, the peptide text is derived from it. Bridges are numbered along the chain shown (N, C = ends). Roman numbers before positions name the chains, in order. [ ]: non-standard residue; d: D form. Actinocin(9to1) = Cc1c2oc3c(C)ccc(C(=O)[*:1])c3nc-2c(C(=O)[*:2])c(N)c1=O; NMeV = CN[C@H](C(=O)O)C(C)C; Sar = CNCC(=O)O

How the values were obtained:
[1] = human, in vivo; cited from earlier work
[2] = rat, in vivo
[3] = tested on: rats; conditions: rat, in vivo
[4] = tested on: rats; conditions: rat, in vivo; remark: listed apart in the source
[5] = tested on: rats; conditions: rat, in vivo; remark: listed apart in the source
[6] = rat, in vivo; remark: listed apart in the source
[7] = male, Charles Rivers CD (Sprague-Dawley)

## COc1cc([C@@H]2c3cc4c(cc3[C@@H](O[C@@H]3O[C@@H]5CO[C@@H](c6cccs6)O[C@H]5[C@H](O)[C@H]3O)[C@H]3COC(=O)[C@H]23)OCO4)cc(OC)c1O [Tenoposide]
[1]
  Frequency of Phlebitis: Frequent

## CO[C@@H]1[C@H](O)C[C@@H](O[C@@H]2C[C@H](Oc3cc4cc5c(c(O)c4c(O)c3C)C(=O)[C@@H](O[C@H]3C[C@@H](O[C@H]4C[C@@H](O[C@H]6C[C@](C)(O)[C@@H](OC(C)=O)[C@H](C)O6)[C@H](O)[C@@H](C)O4)[C@H](O)[C@@H](C)O3)[C@H]([C@H](OC)C(=O)[C@@H](O)[C@@H](C)O)C5)O[C@H](C)[C@@H]2OC(C)=O)O[C@@H]1C [Chromomycin A3]
[1]
  Acute Local tissue Effects (infiltration): Sever tissue sloughing
  Frequency of Phlebitis: Frequent

## hydroxypropyl-β-cyclodextrin [HPCD]
[2]
  effect on body weight: no effect on body weight
[3]
  diameter of the lesion in the one remaining animal: 0.3 cm
  rats with no lesion at any sampling time: 7 of 8
[4]
  lesions caused: no lesions
[5]
  lesion size: 3.5 mm

## CO[C@@]12[C@H](COC(N)=O)C3=C(C(=O)C(C)=C(N)C3=O)N1C[C@@H]1N[C@@H]12 [mitomycin-c]
[6]; male
  rats died: Five of 12
[6]
  loss of initial body weight: about 25%

## CN(N=O)C(=O)N[C@@H](C=O)[C@@H](O)[C@H](O)[C@H](O)CO [streptozocin]
[1]
  Frequency of Phlebitis: Infrequent

## COc1cccc2c1C(=O)c1c(O)c3c(c(O)c1C2=O)C[C@@](O)(C(C)=O)C[C@@H]3O[C@H]1C[C@H](N)[C@H](O)[C@H](C)O1 [daunorubicin]
[1]
  Frequency of Phlebitis: Frequent

## CC(=O)[C@]1(O)Cc2c(O)c3c(c(O)c2[C@@H](O[C@H]2C[C@H](N)[C@H](O)[C@H](C)O2)C1)C(=O)c1ccccc1C3=O [Idarubicin]
[1]
  Frequency of Phlebitis: Frequent

## COc1cccc2c1C(=O)c1c(O)c3c(c(O)c1C2=O)C[C@@](O)(C(=O)CO)C[C@@H]3O[C@H]1C[C@H](N)[C@H](O)[C@H](C)O1 [Doxorubicin, 10-[(3-amino-2,3,6-tri-deoxy-α-L-lyxo-hexopyransoyl)oxy]-7,8,9,10-tetrahydro-6,8,-11-trihydroxy-8-(hydroxyacetyl)-1-methyoxy-5,12-naphthacenedione]
[2]
  effect on body weight: no adverse effect on body weight
[3]; [7]
  rats with lesions: all 8
  rats with necrotic lesions of the skin: all 8
[1]
  Frequency of Phlebitis: Frequent

## CC[C@]1(O)C[C@H]2CN(CCc3c([nH]c4ccccc34)[C@@](C(=O)OC)(c3cc4c(cc3OC)N(C=O)[C@H]3[C@@](O)(C(=O)OC)[C@H](OC(C)=O)[C@]5(CC)C=CCN6CC[C@]43[C@@H]65)C2)C1 [Vincristine, 22-Oxoyincaleukoblastine]
[1]
  Frequency of Phlebitis: Infrequent

## CN(C)/N=N/c1[nH]cnc1C(N)=O [dacarbazine]
[1]
  Acute Local tissue Effects (infiltration): Pain, mild inflammation,
  Frequency of Phlebitis: Frequent

## Cc1c2oc3c(C)ccc(C(=O)N[C@@H]4C(=O)N[C@H](C(C)C)C(=O)N5CCC[C@H]5C(=O)N(C)CC(=O)N(C)[C@@H](C(C)C)C(=O)O[C@@H]4C)c3nc-2c(C(=O)N[C@@H]2C(=O)N[C@H](C(C)C)C(=O)N3CCC[C@H]3C(=O)N(C)CC(=O)N(C)[C@@H](C(C)C)C(=O)O[C@@H]2C)c(N)c1=O [dactinomycin] (I: T[dV]P[Sar][NMeV] / II: T[dV]P[Sar][NMeV]; ester I:1-I:C, II:1-II:C; linker I:N-II:N via Actinocin(9to1))
[1]
  Frequency of Phlebitis: Frequent

## CC(=O)O[C@H]1C(=O)[C@@]2(C)[C@H]([C@H](OC(=O)c3ccccc3)[C@]3(O)C[C@H](OC(=O)[C@H](O)[C@@H](NC(=O)c4ccccc4)c4ccccc4)C(C)=C1C3(C)C)[C@]1(OC(C)=O)CO[C@@H]1C[C@@H]2O [Taxol CV, Taxol]
[4]; male, Charles Rivers CD
  rats with lesions: all 8
